Measured values: patent publication US8426148B2, “Label-free methods using a resonant waveguide grating biosensor to determine GPCR signaling pathways” (Corning Incorporated, priority 2007, dated 2013)
Where two headings read alike, the source gives them in different places.

Experiments:
adenylate cyclase [1] = assay: RWG biosensor DMR assay: NECA pretreatment, then forskolin-induced response; type: cell-based, Human; details: quiescent A431 cells; NECA pretreatment 1 h, then 1 μM forskolin; read-out: IC50 of NECA pretreatment against the forskolin-induced response
Experimental: (§1) The plate lid was handled automatically by the robotics.
Similarly, pretreatment of A431 cells with various concentrations of NECA for 1 h desensitizes adenylate cyclase and attenuates the forskolin-induced responses (FIG. 3B). […] Although not limited by theory a possible mechanism of cross-talk between these two pathways is that upon activation of adenylate cyclase by forskolin, cAMP is produced and activates PKA. PKA in turn may phosphorylate the Gs receptors, and cause complete inhibition of the Gs-mediated response. Accordingly, FIGS. 3A and 3B, respectively, illustrate: 3A) forskolin pretreatment on the NECA-induced Gs response; and 3B) of the effects NECA pretreatment on forskolin-induced responses in quiescent A431 cells.

[2] = system: histamine receptor subtype 1; assay: RWG biosensor DMR assay: U73122 pretreatment, then histamine-induced DMR signal; type: cell-based, Human; details: quiescent A431 cells
Text: as §1
Histamine is a natural agonist for endogenously expressed Gq-coupled receptor histamine receptor subtype 1 in A431 cells.

H1 histamine receptor = assay: RWG biosensor DMR assay: forskolin pretreatment, then histamine-induced Gq response; type: cell-based, Human; details: quiescent A431 cells; forskolin pretreatment 1 h, then 100 nM histamine; read-out: IC50 of forskolin pretreatment, partial inhibition of histamine-induced response
Experimental: (§2) Cell culture—Human epidermoid carcinoma A431 cells (American Type Cell Culture) were grown in Dulbecco's modified Eagle's medium (DMEM) supplemented with 10% fetal bovine serum (FBS), 4.5 g/liter glucose, 2 mM glutamine, and antibiotics. About 1.8×10^4 cells at passage 3 to 8 suspended in 50 μL of the DMEM medium containing 10% FBS were placed in each well of a 384-well microplate, and were cultured at 37° C. under air/5% CO2 for about 1 day, followed by about 20 hr starvation through continuously culturing in the serum-free DMEM.
(§3) Optical biosensor system and cell assays—CORNING® EPIC® wavelength interrogation system was used. […] Once stable temperature is reached (typically within 1 hr), a sensor microplate is transferred by the robotics into the plate holder directly above the detection system, while a source plate is moved to an appropriate compartment so that it is readily addressable by the on-board liquid handling unit. […]
(§4) For kinetic assays, the cells were washed with HBSS (Hanks Balanced Salt Solution with 20 mM HEPES) buffer. After 1 hour incubation within the detection system, the sensor plate was scanned and a baseline response was recorded. Then, compound solutions were transferred into the sensor plate using the on-board liquid handling system, and the cell responses were then recorded for another period of time. […]

adenylate cyclase [3] = details: read-out: IC50 of histamine pretreatment against the forskolin response, quiescent A431 cells, then 1 μM forskolin, slight inhibition
Experimental: as §2, §3, §4

Compound CCNC(=O)[C@H]1O[C@@H](n2cnc3c(N)ncnc32)[C@H](O)[C@@H]1O [NECA, N-ethyladenosine-5′-uronic acid] has an IC50 (adenylate cyclase [1]) of 1.3 nM.

For COc1ccc2c(c1)CC[C@@H]1[C@@H]2CC[C@]2(C)[C@@H](NCCCCCCN3C(=O)C=CC3=O)CC[C@@H]12 [U73122, 1-[6-[[17β-3-methoxyestra-1,3,5(10)-trien-17-yl]amino]hexyl]-1H-pyrrole-2,5-dione], the “effect of U73122 pretreatment on histamine-induced DMR response” value ([2]; U73122 0-228 μM, then 1,000 nM histamine) was “dose-dependent inhibition of the histamine-induced DMR response” and the “effect of U73122 at high doses on histamine response (P-DMR amplitude)” value ([2]; high doses of U73122, 1,000 nM histamine) was “completely inhibit the histamine response”.

Work on C=C[C@@]1(C)CC(=O)[C@]2(O)[C@@]3(C)[C@@H](O)CCC(C)(C)[C@@H]3[C@H](O)[C@H](OC(C)=O)[C@@]2(C)O1 [forskolin, Forskolin] yielded an IC50 (H1 histamine receptor) of ~184 nM.

In the case of NCCc1c[nH]cn1 [histamine, Histamine], the IC50 (adenylate cyclase [3]) is reported as 301 nM.
